Key:
[1] = Index of bioavailability (plasma TT AUC, p.o. vs i.v.); details: rats, adjusted for dose
[2] = target: T1, tissue plasminogen activator (t-PA) (Homo sapiens, UniProt P00750); test: Serine protease inhibition, t-PA (chromogenic substrate), Kass; assay type: biochemical; details: substrate H-D-Ile-Pro-Arg-p-nitroanilide
T1 construct: purchased American Diagnostics, Greenwich, Conn
Procedure: (§1) The assay is carried out by mixing 50 μl buffer (0.03M Tris, 0.15M NaCl, pH 7.4), 25 μl of human thrombin solution (purified human thrombin Enzyme Research Laboratories, South Bend, Ind.) at 8 NIH units/ml and 25 μl of test compound in a solvent (50% aqueous methanol (v:v)). Then 150 μl of an aqueous solution of the chromogenic substrate (at 0.25 mg/ml) are added and the rates of hydrolysis of the substrate are measured by monitoring the reactions at 405 nm for the release of p-nitroaniline. Standard curves are constructed by plotting free thrombin concentration against hydrolysis rate. The hydrolysis rates observed with test compounds are then converted to "free thrombin" values in the respective assays by use of the standard curves. The bound thrombin (bound to test compound) is calculated by subtracting the amount of free thrombin observed in each assay from the known initial amount of thrombin used in the assay. The amount of free inhibitor in each assay is calculated by subtracting the number of moles of bound thrombin from the number of moles of added inhibitor (test compound).
(§2) Kass is calculated for a range of concentrations of test compounds and the mean value is reported in units of liter per mole.
(§3) By substantially following the procedures described above for human thrombin, and using other human blood coagulation system serine proteases, and using fibrinolytic system serine proteases, with the appropriate chromogenic substrate, identified below, selectivity of the compounds of the present invention with respect to the coagulation factor serine proteases and to the fibrinolytic serine proteases are evaluated as well as their substantial lack of interference with human plasma clot fibrinolysis.
(§4) Human factors X, Xa, IXa, XIa, and xIIa are purchased from Enzyme Research Laboratories, South Bend, Ind.; human urokinase from Leo Pharmaceuticals, Denmark; and recombinant activated Protein C (aPC) is prepared at Eli Lilly and Co. substantially according to U.S. Pat. No. 4,981,952 incorporated by reference herein in its entirety. Chromogenic substrates: N-Benzoyl-Ile-Glu-Gly-Arg-p-nitroanilide (for factor Xa); N-Cbz-D-Arg-Gly-Arg-p-nitroanilide (for factor IXa assay as the factor Xa substrate) pyroglutamyl-Pro-Arg-p-nitroanilide (for factor XIa and for aPC); H-D-Pro-Phe-Arg-p-nitroanilide (for factor XIIa); and pyroglutamyl-Gly-Arg-p-nitroanilide (for urokinase); are purchased from KabiVitrum, Stockholm, Sweden, or from Midwest Biotech, Fishers, Indiana. Bovine trypsin is purchased from Worthington Biochemicals, Freehold, N.J., and human plasma kallikrein from Kabi Vitrum, Stockholm, Sweden. N-Benzoyl-Phe-Val-Arg-p-nitroanilide, the substrate for human thrombin and for trypsin, is synthesized according to procedures described above for the compounds of the present invention, known methods of peptide coupling from commercially available reactants, or was purchased from Midwest Biotech, Fishers, Ind. Human plasmin is purchased from Boehringer Mannheim, Indianapolis, Ind.; nt-PA is purchased as single chain activity reference from American Diagnostics, Greenwich, Conn.; modified-t-PA6 (mt-PA6) is prepared at Eli Lilly and Company by procedure known in the art (See, Burck, et al., J. Biol. Chem., 265, […] (1990). Plasmin chromogenic substrate H-D-Val-Leu-Lys-p-nitroanilide and tissue plasminegen activator (t-PA) substrate H-D-Ile-Pro-Arg-p-nitroanilide are purchased from Kabi Vitrum, Stockholm, Sweden.

[3] = target: T2, Human plasmin (Homo sapiens, UniProt P00747); test: Serine protease inhibition, plasmin (chromogenic substrate), Kass; assay type: biochemical; details: substrate H-D-Val-Leu-Lys-p-nitroanilide
T2 construct: Human plasmin is purchased from Boehringer Mannheim, Indianapolis, Ind; purchased Boehringer Mannheim, Indianapolis, Ind
T2 sequence (P00747 581-810 limits assumed): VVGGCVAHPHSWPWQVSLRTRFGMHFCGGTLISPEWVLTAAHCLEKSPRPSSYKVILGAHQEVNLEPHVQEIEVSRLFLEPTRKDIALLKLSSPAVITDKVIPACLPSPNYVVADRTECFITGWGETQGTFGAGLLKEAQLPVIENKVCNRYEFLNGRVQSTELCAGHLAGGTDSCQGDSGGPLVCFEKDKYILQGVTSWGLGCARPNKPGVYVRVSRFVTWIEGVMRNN
T2 sequence (P00747 97-580 partner limits assumed): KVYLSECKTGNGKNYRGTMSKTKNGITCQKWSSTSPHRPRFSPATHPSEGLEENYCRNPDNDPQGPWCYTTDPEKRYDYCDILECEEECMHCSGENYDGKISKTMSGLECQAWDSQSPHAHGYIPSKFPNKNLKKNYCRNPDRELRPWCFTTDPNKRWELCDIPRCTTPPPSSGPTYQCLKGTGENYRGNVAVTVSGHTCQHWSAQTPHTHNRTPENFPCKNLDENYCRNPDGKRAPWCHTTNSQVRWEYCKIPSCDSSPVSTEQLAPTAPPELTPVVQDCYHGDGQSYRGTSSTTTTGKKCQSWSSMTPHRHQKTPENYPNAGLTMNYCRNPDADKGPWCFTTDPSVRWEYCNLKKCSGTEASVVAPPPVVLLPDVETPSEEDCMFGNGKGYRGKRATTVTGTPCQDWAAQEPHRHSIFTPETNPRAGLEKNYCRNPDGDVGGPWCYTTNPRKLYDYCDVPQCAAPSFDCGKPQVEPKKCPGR
Procedure: as §1, §2, §3, §4

[4] = system: Human Plasma; test: Anticoagulation in human plasma, activated partial thromboplastin time (APTT); assay type: biochemical; details: concentration required to double the APTT
Procedure: (§5) Dog plasma and rat plasma are obtained from conscious mixed-breed hounds (either sex, Hazelton-LRE, Kalamazoo, Mich., U.S.A.) or from anesthetized male Sprague-Dawley rats (Harlan Sprague-Dawley, Inc., Indianapolis, Ind., U.S.A.) by venipuncture into 3.8 percent citrate. Fibrinogen is prepared from in-date ACD human blood as the fraction I-2 according to previous procedures and specifications. Smith, Biochem. Chem. […] Human fibrinogen is also purchased as 98 percent pure/plasmin free from American Diagnostics, Greenwich, Conn. Coagulation reagents ACTIN, Thromboplastin, and Human plasma are from Baxter Healthcare Corp., Dade Division, Miami, Fla. Bovine thrombin from Parke-Davis (Ann Arbor, Mich.) is used for coagulation assays in plasma. Coagulation assay procedures are as previously described. Smith, et al., Thrombosis Research, 5, 163-174 (1988). A CoAScreener coagulation instrument (American LABor, Inc.) is used for all coagulation assay measurements. The prothrombin time (PT) is measured by adding 0.05 ml saline and 0.05 ml Thromboplastin-C reagent to 0.05 ml test plasma. The activated partial thromboplastin time (APTT) is measured by incubation of 0.05 ml test plasma with 0.05 ml Actin reagent for 120 seconds followed by 0.05 ml CaCl2 (0.02M). […] The compounds of formula I are added to human or animal plasma over a wide range of concentrations to determine prolongation effects on the APTT, PT, and TT assays. Linear extrapolations are performed to estimate the concentrations required to double the clotting time for each assay.

[5] = system: Human Plasma; test: Anticoagulation in human plasma, thrombin time (TT); assay type: biochemical; details: concentration required to double the thrombin time
Procedure: as §5

[6] = target: T3, Bovine trypsin (Bos taurus, UniProt P00760); test: Serine protease inhibition, trypsin (chromogenic substrate), Kass; assay type: biochemical; details: substrate N-Benzoyl-Phe-Val-Arg-p-nitroanilide
T3 construct: Bovine trypsin is purchased from Worthington Biochemicals, Freehold, N.J; purchased Worthington Biochemicals, Freehold, N.J
T3 sequence (P00760 24-246): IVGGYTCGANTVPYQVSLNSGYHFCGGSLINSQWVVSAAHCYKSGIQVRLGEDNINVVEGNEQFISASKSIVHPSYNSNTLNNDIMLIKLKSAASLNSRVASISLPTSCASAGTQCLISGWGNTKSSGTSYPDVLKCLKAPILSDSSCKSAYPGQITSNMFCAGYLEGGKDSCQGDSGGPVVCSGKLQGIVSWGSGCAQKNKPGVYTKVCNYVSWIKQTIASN
Procedure: as §1, §2, §3, §4

[7] = target: T4, human thrombin (Homo sapiens, UniProt P00734); test: Inhibition of amidase activity of thrombin (chromogenic substrate), Kass; assay type: biochemical; details: substrate N-benzoyl-Phe-Val-Arg-p-nitroanilide, pH 7.4
T4 construct: purified human thrombin Enzyme Research Laboratories, South Bend, Ind; purchased Enzyme Research Laboratories, South Bend, Ind
Procedure: as §1
The Kass value is the hypothetical equilibrium constant for the reaction between thrombin and the test compound (I). [drawing 53]
as §2

[8] = system: Human Plasma; test: Anticoagulation in human plasma, prothrombin time (PT); assay type: biochemical; details: concentration required to double the PT
Procedure: as §5

[9] = target: T5, factor Xa (Homo sapiens, UniProt P00742); test: Serine protease inhibition, factor Xa (chromogenic substrate), Kass; assay type: biochemical; details: substrate N-Benzoyl-Ile-Glu-Gly-Arg-p-nitroanilide
T5 construct: Human factors X, Xa, IXa, XIa, and xIIa are purchased from Enzyme Research Laboratories; purchased Enzyme Research Laboratories, South Bend, Ind
T5 sequence (P00742 235-488 limits assumed): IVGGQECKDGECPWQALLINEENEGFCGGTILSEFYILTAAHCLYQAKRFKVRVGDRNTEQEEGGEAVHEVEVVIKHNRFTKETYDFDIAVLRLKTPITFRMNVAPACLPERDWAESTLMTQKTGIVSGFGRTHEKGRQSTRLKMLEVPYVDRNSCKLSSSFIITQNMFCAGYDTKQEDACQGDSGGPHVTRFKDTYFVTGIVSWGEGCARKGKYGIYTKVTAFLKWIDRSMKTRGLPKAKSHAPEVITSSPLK
T5 sequence (P00742 41-179 partner limits assumed): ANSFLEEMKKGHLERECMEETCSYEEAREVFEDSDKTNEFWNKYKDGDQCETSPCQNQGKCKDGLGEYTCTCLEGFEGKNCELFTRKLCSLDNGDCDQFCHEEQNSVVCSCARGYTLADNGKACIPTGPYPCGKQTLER
Procedure: as §1, §2, §3, §4

T1 sequence (P00750 36-562): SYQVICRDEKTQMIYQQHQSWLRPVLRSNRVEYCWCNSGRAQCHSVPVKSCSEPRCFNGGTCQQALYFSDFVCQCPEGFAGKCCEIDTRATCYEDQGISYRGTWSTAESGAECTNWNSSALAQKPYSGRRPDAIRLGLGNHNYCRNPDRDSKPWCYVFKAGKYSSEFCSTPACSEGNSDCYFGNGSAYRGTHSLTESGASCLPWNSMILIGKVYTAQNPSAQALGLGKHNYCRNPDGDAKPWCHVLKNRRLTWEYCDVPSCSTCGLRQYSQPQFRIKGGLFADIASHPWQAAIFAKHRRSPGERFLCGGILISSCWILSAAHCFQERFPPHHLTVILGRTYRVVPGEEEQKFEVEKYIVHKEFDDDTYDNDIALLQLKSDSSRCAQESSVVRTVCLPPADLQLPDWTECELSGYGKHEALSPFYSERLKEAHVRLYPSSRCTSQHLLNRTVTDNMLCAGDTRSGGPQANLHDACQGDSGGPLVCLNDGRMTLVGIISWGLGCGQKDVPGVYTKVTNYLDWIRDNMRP

## Cl.Cn1c(C(=O)NC(Cc2ccccc2)C(=O)N2CCCC2C(=O)NC(C=O)CCCN=C(N)N)cc2ccccc21 [Example 1, NMI-D-Phe-Pro-Arg-H.HCl]
[1]
  Index of Bioavailability, % Relative Activity: 2%
[2]
  Enzyme Kass, t-Pa: 31 L/mol × 10^6
[3]
  Enzyme Kass, Plasmin: 7.9 L/mol × 10^6
[4]
  2 × Clotting time, APTT: 440 ng/mL
[5]
  2 × Clotting time, TT: 43 ng/mL
[6]
  Enzyme Kass, Trypsin: 120 L/mol × 10^6
[7]
  Enzyme Kass, Human Thrombin: 850 L/mol × 10^6
[8]
  2 × Clotting time, PT: 870 ng/mL
[9]
  Enzyme Kass, Xa: 0.51 L/mol × 10^6

## Cl.NC(N)=NCCCC(C=O)NC(=O)C1CCCN1C(=O)C(Cc1ccccc1)NC(=O)c1ccc2ccccc2n1 (centres unmarked) [Example 2]
[1]
  Index of Bioavailability, % Relative Activity: 1%
[2]
  Enzyme Kass, t-Pa: 0.32 L/mol × 10^6
[3]
  Enzyme Kass, Plasmin: 0.55 L/mol × 10^6
[4]
  2 × Clotting time, APTT: 1,100 ng/ML
[5]
  2 × Clotting time, TT: 35 ng/mL
[6]
  Enzyme Kass, Trypsin: 22 L/mol × 10^6
[7]
  Enzyme Kass, Human Thrombin: 110 L/mol × 10^6
[8]
  2 × Clotting time, PT: 1,400 ng/ML
[9]
  Enzyme Kass, Xa: 0.16 L/mol × 10^6

## Cl.N=C(N)NCCC[C@@H](C=O)NC(=O)[C@@H]1CCCN1C(=O)[C@@H](Cc1ccccc1)NC(=O)c1cccnc1 [Example 3, N-Nicotinoyl-D-Phe-Pro-Arg-H.HCl]
[1]
  Index of Bioavailability, % Relative Activity: 3%
[2]
  Enzyme Kass, t-Pa: 0.17 L/mol × 10^6
[3]
  Enzyme Kass, Plasmin: 0.41 L/mol × 10^6
[4]
  2 × Clotting time, APTT: 1,300 ng/ML
[5]
  2 × Clotting time, TT: 47 ng/mL
[6]
  Enzyme Kass, Trypsin: 12 L/mol × 10^6
[7]
  Enzyme Kass, Human Thrombin: 58 L/mol × 10^6
[8]
  2 × Clotting time, PT: 1,700 ng/ML
[9]
  Enzyme Kass, Xa: 0.080 L/mol × 10^6

## COCC(=O)N[C@H](Cc1ccccc1)C(=O)N1CCC[C@H]1C(=O)N[C@H](C=O)CCCNC(=N)N.Cl [Example 24, CH3 OCH2 CO-D-Phe-Pro-Arg-H.HCl]
[2]
  Enzyme Kass, t-Pa: 0.30 L/mol × 10^6
[3]
  Enzyme Kass, Plasmin: 3.8 L/mol × 10^6
[4]
  2 × Clotting time, APTT: 440 ng/mL
[5]
  2 × Clotting time, TT: 38 ng/mL
[6]
  Enzyme Kass, Trypsin: 57 L/mol × 10^6
[7]
  Enzyme Kass, Human Thrombin: 33 L/mol × 10^6
[8]
  2 × Clotting time, PT: 1,200 ng/ML
[9]
  Enzyme Kass, Xa: 0.29 L/mol × 10^6

## Cl.N=C(N)NCCC[C@@H](C=O)NC(=O)[C@@H]1CCCN1C(=O)[C@@H](Cc1ccccc1)NC(=O)C(F)(F)F [Example 25, CF3 CO-D-Phe-Pro-Arg-H.HCl]
[2]
  Enzyme Kass, t-Pa: 0.17 L/mol × 10^6
[3]
  Enzyme Kass, Plasmin: 0.31 L/mol × 10^6
[4]
  2 × Clotting time, APTT: 1,300 ng/ML
[5]
  2 × Clotting time, TT: 59 ng/mL
[6]
  Enzyme Kass, Trypsin: 15 L/mol × 10^6
[7]
  Enzyme Kass, Human Thrombin: 26 L/mol × 10^6
[8]
  2 × Clotting time, PT: 1,800 ng/ML
[9]
  Enzyme Kass, Xa: 0.033 L/mol × 10^6

## Cl.N=C(N)NCCC[C@@H](C=O)NC(=O)[C@@H]1CCCN1C(=O)[C@@H](Cc1ccccc1)NC(=O)Cc1ccccc1 [Example 26, PhCH2 CO-D-Phe-Pro-Arg-H.HCl]
[2]
  Enzyme Kass, t-Pa: 0.37 L/mol × 10^6
[3]
  Enzyme Kass, Plasmin: 0.54 L/mol × 10^6
[4]
  2 × Clotting time, APTT: 1,100 ng/ML
[5]
  2 × Clotting time, TT: 64 ng/mL
[6]
  Enzyme Kass, Trypsin: 14 L/mol × 10^6
[7]
  Enzyme Kass, Human Thrombin: 29 L/mol × 10^6
[8]
  2 × Clotting time, PT: 2,000 ng/ML
[9]
  Enzyme Kass, Xa: 0.10 L/mol × 10^6

## Cl.N=C(N)NCCC[C@@H](C=O)NC(=O)[C@@H]1CCCN1C(=O)[C@@H](Cc1ccccc1)NC(=O)C1CCCCC1 [Example 27, cyclohexyl-CO-D-Phe-Pro-Arg-H.HCl]
[2]
  Enzyme Kass, t-Pa: 0.26 L/mol × 10^6
[3]
  Enzyme Kass, Plasmin: 0.24 L/mol × 10^6
[4]
  2 × Clotting time, APTT: 1,300 ng/ML
[5]
  2 × Clotting time, TT: 63 ng/mL
[6]
  Enzyme Kass, Trypsin: 5.9 L/mol × 10^6
[7]
  Enzyme Kass, Human Thrombin: 20 L/mol × 10^6
[8]
  2 × Clotting time, PT: 1,800 ng/ML
[9]
  Enzyme Kass, Xa: 0.064 L/mol × 10^6

## CCCN(CCC)S(=O)(=O)c1ccc(C(=O)N[C@H](Cc2ccccc2)C(=O)N2CCC[C@H]2C(=O)N[C@H](C=O)CCCNC(=N)N)cc1.Cl [Example 29, 4-(n-Pr2 NSO2)-C6 H4 CO-D-Phe-Pro-Arg-H.HCl]
[2]
  Enzyme Kass, t-Pa: 0.62 L/mol × 10^6
[3]
  Enzyme Kass, Plasmin: 0.86 L/mol × 10^6
[4]
  2 × Clotting time, APTT: 3,500 ng/ML
[5]
  2 × Clotting time, TT: 150 ng/mL
[6]
  Enzyme Kass, Trypsin: 15 L/mol × 10^6
[7]
  Enzyme Kass, Human Thrombin: 43 L/mol × 10^6
[8]
  2 × Clotting time, PT: 4,800 ng/ML
[9]
  Enzyme Kass, Xa: 0.32 L/mol × 10^6

## CCNC(=O)N[C@H](Cc1ccccc1)C(=O)N1CCC[C@H]1C(=O)N[C@H](C=O)CCCN=C(N)N.Cl [Example 32, EtNHCO-D-Phe-Pro-Arg-H.HCl]
[2]
  Enzyme Kass, t-Pa: 0.54 L/mol × 10^6
[3]
  Enzyme Kass, Plasmin: 2.0 L/mol × 10^6
[4]
  2 × Clotting time, APTT: 1,100 ng/ML
[5]
  2 × Clotting time, TT: 63 ng/mL
[6]
  Enzyme Kass, Trypsin: 60 L/mol × 10^6
[7]
  Enzyme Kass, Human Thrombin: 25 L/mol × 10^6
[8]
  2 × Clotting time, PT: 1,700 ng/ML
[9]
  Enzyme Kass, Xa: 0.21 L/mol × 10^6

## CCOC(=O)N[C@H](CC1CCCCC1)C(=O)N1CCC[C@H]1C(=O)N[C@H](C=O)CCCN=C(N)N.Cl [Example 34, EtOCO-D-Cha-Pro-Arg-H.HCl]
[2]
  Enzyme Kass, t-Pa: 0.75 L/mol × 10^6
[3]
  Enzyme Kass, Plasmin: 26 L/mol × 10^6
[4]
  2 × Clotting time, APTT: 410 ng/mL
[5]
  2 × Clotting time, TT: 48 ng/mL
[6]
  Enzyme Kass, Trypsin: 140 L/mol × 10^6
[7]
  Enzyme Kass, Human Thrombin: 360 L/mol × 10^6
[8]
  2 × Clotting time, PT: 890 ng/mL
[9]
  Enzyme Kass, Xa: 8.1 L/mol × 10^6
